Data as given in article PMC8907207, “Multiplex quantification of C-terminal alpha-1-antitrypsin peptides provides a novel approach for characterizing systemic inflammation” (Scientific Reports, 2022).
Ends that are not written are not given here.

Tests used:
[1] = Benchtop stability of QC samples at room temperature; format: in vitro ADME; details: QC in 70 g/L albumin in PBS, 60 min. at room temperature, LC-MS/MS
Method: (§1) Stability of analytes in processed samples was determined at six independent days for a time span of 20 h in the autosampler. Deviations of standing samples to freshly measured samples were below 19% at the LLOQ and below 9% for other QC levels for each analyte, respectively (Additional file 4). Stability of analytes in biological matrix was determined by consecutive cycles of freezing and thawing as well as extended intervals at room temperature from thawing to processing (approximately one hour).
(§2) Lyophilized authentic peptide standards were dissolved and diluted in a 70 g/L Albumin (from human serum, lyophilized, ≥ 99%, Sigma-Aldrich) in PBS (Sigma-Aldrich, St. Louis, MO, USA) solution. Internal standards C37^IS and C42^IS were dissolved in Milli-Q water (Millipore, Brussels, Belgium) containing 0.1% (v/v) formic acid (≥ 95%, Sigma-Aldrich) whereas C22^IS was only dissolved in ultrapure water. Mixtures of CAAPs used as calibration standards (calibrants) and quality control samples (QCs) were prepared as stock solution to a final concentration of 14 µM, respectively, (expect C40^SNP which was 5 µM) with subsequent serial dilutions. Calibrants and QCs were obtained from separate serial dilutions. Internal standard solution was prepared by adding equal volumes of each IS yielding a final concentration of 0.8 µM, respectively. All samples used for method development and validation were prepared and stored in 0.5 mL Protein LoBind Tubes (Eppendorf AG, Hamburg, Germany) in aliquots at − 80 °C until use.
(§3) Working range of calibrants was defined based on CAAPs detected in samples from healthy donors (set to approximate lower limit of quantification) and in samples from septic patients (set to middle to high calibration range) which were re-analyzed from a previously work[46]. Nine calibrants were used in total ranging from 0.01 µM to 1.5 µM thereby covering more than two orders of magnitude in concentration. Linearity was assessed determining mean linear regression coefficients of each calibration curve from 0.01 to 1.5 µM in eight independent analytical runs. However, respective LLOQs (lower limit of quantification) and ULOQs (upper limit of quantification) were defined individually based on natural occurrence (see above) and results from validation parameter directly affected individual working ranges (carry-over, specificity). Four QC samples were prepared and measured in total (QC1, QC2, QC3, and QC4) to cover the entire range of calibration. However, three QCs for each of the respective analytes were used for method validation. Carry-over was determined measuring pure albumin solutions prepared without internal standards (but equal amount and concentration of water/formic acid solution as regular internal standard solution, “blank albumin sample”) directly after the respective highest calibrants. Peak areas were compared to peak areas from respective LLOQ samples (prepared with regular internal standard solution). Specificity was assessed using single compounds at respective highest calibrant level which were prepared and calculated as described for carry-over. The specificity of analytes towards internal standards was determined using pure albumin solution with internal standard (“zero albumin sample”). Accuracy and precision was determined by back-calculated concentrations from repeated measurements of the same QC samples during one analytical run (within-run repeatability, n = 5) and from freshly prepared samples during five independent analytical runs (between-run, n = 5). Due to the unavailability of analyte-free biological matrix, selectivity of analytes were assessed in pure albumin solution containing internal standards. Matrix effects were determined calculating recovery rates and precision of each compound in human blood samples. Direct comparison between different anticoagulants (EDTA, lithium-heparin) and serum was performed using whole blood from the same human donor. […]

[2] = Freeze/thaw stability of QC samples; format: in vitro ADME; details: QC in 70 g/L albumin in PBS, two cycles of freezing and thawing, LC-MS/MS
Method: as §1, §2, §3

[3] = QC2 (0.025 µM; C40^SNP see Table 1)
[4] = QC3 (0.3 µM; C40^SNP 0.1073 µM)

For “SIPPEVKFNKPFVFLMIEQNTKSPLFMGKVVNPTQK [C36^WT]”, the benchtop stability, accuracy (mean of n=3) [1, 3] was 106%, the “benchtop stability, deviation from freshly processed QCs (mean of n=3)” value (“benchtop stability, deviation” for short) [1, 3] was 4% and the benchtop stability, accuracy (mean of n=3) [1, 4] was 98%. The “benchtop stability, deviation” value [1, 4] was -1%, the freeze/ thaw stability, accuracy (mean of n=3) [2, 3] was 106% and the “freeze/ thaw stability, deviation from freshly processed QCs (mean of n=3)” value (from here on “freeze/ thaw stability, deviation”) [2, 3] was 4%. For the same sequence, the freeze/ thaw stability, accuracy (mean of n=3) [2, 4] was 98% and the “freeze/ thaw stability, deviation” value [2, 4] was -1%.
In the case of “AMFLEAIPMSIPPEVKFNKPFVFLMIEQNTKSPLFMGKVVNPTQK [C45^WT]”, the benchtop stability, accuracy (mean of n=3) [1, 3] is reported as 116%, the “benchtop stability, deviation” value [1, 3] is reported as 1% and the benchtop stability, accuracy (mean of n=3) [1, 4] is reported as 117%. For the same sequence, the “benchtop stability, deviation” value [1, 4] was -3%, the freeze/ thaw stability, accuracy (mean of n=3) [2, 3] was 108% and the “freeze/ thaw stability, deviation” value [2, 3] was -6%. For the same sequence, the freeze/ thaw stability, accuracy (mean of n=3) [2, 4] was 117% and the “freeze/ thaw stability, deviation” value [2, 4] was -2%.
For “MFLEAIPMSIPPEVKFNKPFVFLMIEQNTKSPLFMGKVVNPTQK [C44^WT]”, the benchtop stability, accuracy (mean of n=3) [1, 3] was 117%, the “benchtop stability, deviation” value [1, 3] was 1% and the benchtop stability, accuracy (mean of n=3) [1, 4] was 114%. The “benchtop stability, deviation” value [1, 4] was -2%, the freeze/ thaw stability, accuracy (mean of n=3) [2, 3] was 110% and the “freeze/ thaw stability, deviation” value [2, 3] was -4%. For the same sequence, the freeze/ thaw stability, accuracy (mean of n=3) [2, 4] was 115% and the “freeze/ thaw stability, deviation” value [2, 4] was -1%.
In the case of “MFLEAIPMSIPPEVKFNKPFVFLMIDQNTKSPLFMGKVVNPTQK [C44^SNP]”, the benchtop stability, accuracy (mean of n=3) [1, 3] is reported as 114%, the “benchtop stability, deviation” value [1, 3] is reported as -2% and the benchtop stability, accuracy (mean of n=3) [1, 4] is reported as 115%. The “benchtop stability, deviation” value [1, 4] was -2%, the freeze/ thaw stability, accuracy (mean of n=3) [2, 3] was 109% and the “freeze/ thaw stability, deviation” value [2, 3] was -6%. The freeze/ thaw stability, accuracy (mean of n=3) [2, 4] was 115% and the “freeze/ thaw stability, deviation” value [2, 4] was -2%.
In the case of “MSIPPEVKFNKPFVFLMIDQNTKSPLFMGKVVNPTQK [C37^SNP]”, the benchtop stability, accuracy (mean of n=3) [1, 3] is reported as 103%, the “benchtop stability, deviation” value [1, 3] is reported as 0% and the benchtop stability, accuracy (mean of n=3) [1, 4] is reported as 99%. For the same sequence, the “benchtop stability, deviation” value [1, 4] was -1%, the freeze/ thaw stability, accuracy (mean of n=3) [2, 3] was 104% and the “freeze/ thaw stability, deviation” value [2, 3] was 0%. The freeze/ thaw stability, accuracy (mean of n=3) [2, 4] was 98% and the “freeze/ thaw stability, deviation” value [2, 4] was -1%.
With “AMFLEAIPMSIPPEVKFNKPFVFLMIDQNTKSPLFMGKVVNPTQK [C45^SNP]” the benchtop stability, accuracy (mean of n=3) [1, 3] was 114%, the “benchtop stability, deviation” value [1, 3] was 1% and the benchtop stability, accuracy (mean of n=3) [1, 4] was 112%. The “benchtop stability, deviation” value [1, 4] was -2%, the freeze/ thaw stability, accuracy (mean of n=3) [2, 3] was 109% and the “freeze/ thaw stability, deviation” value [2, 3] was -3%. For the same sequence, the freeze/ thaw stability, accuracy (mean of n=3) [2, 4] was 112% and the “freeze/ thaw stability, deviation” value [2, 4] was -2%.
In the case of “FLEAIPMSIPPEVKFNKPFVFLMIEQNTKSPLFMGKVVNPTQK [C43^WT]”, the benchtop stability, accuracy (mean of n=3) [1, 3] is reported as 110%, the “benchtop stability, deviation” value [1, 3] is reported as 4% and the benchtop stability, accuracy (mean of n=3) [1, 4] is reported as 109%. The “benchtop stability, deviation” value [1, 4] was -1%, the freeze/ thaw stability, accuracy (mean of n=3) [2, 3] was 103% and the “freeze/ thaw stability, deviation” value [2, 3] was -2%. The freeze/ thaw stability, accuracy (mean of n=3) [2, 4] was 108% and the “freeze/ thaw stability, deviation” value [2, 4] was -2%.
With “IPMSIPPEVKFNKPFVFLMIEQNTKSPLFMGKVVNPTQK [C39^WT]” the benchtop stability, accuracy (mean of n=3) [1, 3] was 106%, the “benchtop stability, deviation” value [1, 3] was 8% and the benchtop stability, accuracy (mean of n=3) [1, 4] was 98%. For the same sequence, the “benchtop stability, deviation” value [1, 4] was -1%, the freeze/ thaw stability, accuracy (mean of n=3) [2, 3] was 107% and the “freeze/ thaw stability, deviation” value [2, 3] was 8%. For the same sequence, the freeze/ thaw stability, accuracy (mean of n=3) [2, 4] was 101% and the “freeze/ thaw stability, deviation” value [2, 4] was 2%.
For “FLEAIPMSIPPEVKFNKPFVFLMIDQNTKSPLFMGKVVNPTQK [C43^SNP]”, the benchtop stability, accuracy (mean of n=3) [1, 3] was 109%, the “benchtop stability, deviation” value [1, 3] was 1% and the benchtop stability, accuracy (mean of n=3) [1, 4] was 107%. The “benchtop stability, deviation” value [1, 4] was -3%, the freeze/ thaw stability, accuracy (mean of n=3) [2, 3] was 105% and the “freeze/ thaw stability, deviation” value [2, 3] was -4%. The freeze/ thaw stability, accuracy (mean of n=3) [2, 4] was 107% and the “freeze/ thaw stability, deviation” value [2, 4] was -3%.
